In PMC7029871, “Development and validation of a sensitive LC-MS/MS method for the quantitation of IMB-YH-4py5-2H, an antituberculosis candidate, and its application to the pharmacokinetic study” (PLoS ONE, 2020):

Assays:
[1] = test system: intracellular M. tuberculosis H37Rv; experiment: Intracellular activity assay in infected macrophages; type: cell-based, Mycobacterium tuberculosis; settings: three-day incubation, infected J744 macrophages, untreated 6.47±0.04
[2] = cited from earlier work
[3] = design: method as in PMID 26579477; settings: oral administration of 200 mg/kg; cited from earlier work

SMILES | Log10CFU ([1]; 0.5 μg/mL) [Log10CFU] | Log10CFU ([1]; 1 μg/mL) [Log10CFU] | Log10CFU ([1]; 2 μg/mL) [Log10CFU] | solubility [2] | serum Cmax [3] | time until serum level decreased below the therapeutic range [3]
NNC(=O)c1ccncc1 [Isoniazid, reference compound] | 4.60±0.05 | 3.57±0.06 | 4.01±0.14 |  |  | 
COC(=O)/C=C/C(=O)c1ccc(OC)cc1 [YH-8, (E)-Methyl-4-aryl-4-oxabut-2-enoate, reference compound] |  |  |  | poor solubility | lower than 0.5 μg/mL | less than 1 hour
